Test results as given in US4337199A, “Antibiotic β-lactam compounds, production thereof, and their use as antimicrobial agent” (Sanraku-Ocean Co., Ltd., priority 1978, dated 1982).
Converted amounts (≈) assume the structure as drawn.

Legend:
Assay in all cases: minimum inhibitory concentration, agar dilution assay
Type in all cases: cell-based
[1] = test system: Enterobacter aerogenes E19; settings: Klebsiella aerogenes, E19; agar dilution, 35° C., 20 hours; read-out: minimum inhibitory concentration
Description: (§1) The antibiotic activities shown in Tables I-1 to I-8 above were determined in the following manner.
(§2) The minimum inhibitory concentrations of the compounds of formula (I-a-1) or (I-b-1) in Tables I-1 to I-7 and the known compounds in Table I-8 on the various microorganisms shown in the above tables were measured by an agar dilution assay method using a brain heart infusion agar medium "Difco" (a product of Difco Laboratories Inc.)
(§3) A sample of the test compound was dissolved in sterile distilled water and diluted to prepare a two-fold dilution series of the compound solution. In a petri plate of 9 cm diameter, 1 ml of the compound solution was added to 9 ml of molten sterile heart infusion agar medium (Difco Laboratories Inc.) at about 60° C. to prepare the compound-containing agar plate. An overnight culture of each test organism indicated in the above table which was prepared by stationary cultivation in Trypto-Soy broth (Eiken Chemi. Co., Ltd.) at 35° C. for 18 to 20 hours, was diluted with the Trypto-Soy broth to give approximately 10^8 cells/ml and the diluted inoculum was inoculated onto the compound-containing agar plates. After cultivating the plates at 35° C. for 20 hours, the growth of the organism was observed. The minimum concentration of the compound at which no growth of the microorganism was noted was determined, and defined as the minimum inhibitory concentration of the test compound.

[2] = test system: Enterobacter sp. E8; settings: SP.E8, agar dilution, 35° C., 20 hours, read-out: minimum inhibitory concentration
Description: as §1, §2, §3

[3] = test system: Alcaligenes faecalis A 1; settings: A1, agar dilution, 35° C., 20 hours, read-out: minimum inhibitory concentration
Description: as §1, §2, §3

[4] = test system: Staphylococcus epidermidis; settings: agar dilution, 35° C., 20 hours, read-out: minimum inhibitory concentration
Description: as §1, §2, §3

[5] = test system: Providencia sp. P8; settings: SP.P8, agar dilution, 35° C., 20 hours, read-out: minimum inhibitory concentration
Description: as §1, §2, §3

[6] = test system: Staphylococcus aureus FDA 209P; settings: FDA209P, agar dilution, 35° C., 20 hours, read-out: minimum inhibitory concentration
Description: as §1, §2, §3

[7] = test system: Enterobacter cloacae 45; settings: Enterobacter cloacae, 45; agar dilution, 35° C., 20 hours; read-out: minimum inhibitory concentration
Description: as §1, §2, §3

[8] = test system: Proteus sp. P22; settings: agar dilution, 35° C., 20 hours; read-out: minimum inhibitory concentration
Description: as §1, §2, §3

[9] = test system: Proteus vulgaris GN76; settings: GN76, agar dilution, 35° C., 20 hours, read-out: minimum inhibitory concentration
Description: as §1, §2, §3

[10] = test system: Staphylococcus aureus Smith; settings: agar dilution, 35° C., 20 hours, read-out: minimum inhibitory concentration
Description: as §1, §2, §3

[11] = test system: Comamonas terrigena B-996; settings: B996, agar dilution, 35° C., 20 hours, read-out: minimum inhibitory concentration
Description: as §1, §2, §3

[12] = test system: Escherichia coli RGN 823; settings: RGN823, agar dilution, 35° C., 20 hours, read-out: minimum inhibitory concentration
Description: as §1, §2, §3

[13] = test system: Proteus mirabilis P6; settings: P6, agar dilution, 35° C., 20 hours, read-out: minimum inhibitory concentration
Description: as §1, §2, §3

[14] = test system: Klebsiella pneumoniae K-13; settings: K13, agar dilution, 35° C., 20 hours, read-out: minimum inhibitory concentration
Description: as §1, §2, §3

[15] = test system: Bacillus subtilis ATCC 6633; settings: ATCC6633, agar dilution, 35° C., 20 hours, read-out: minimum inhibitory concentration
Description: as §1, §2, §3

[16] = test system: Sarcina lutea; settings: Micrococcus luteus; agar dilution, 35° C., 20 hours; read-out: minimum inhibitory concentration
Description: as §1, §2, §3

[17] = test system: Serratia marcescens T55; settings: T55, agar dilution, 35° C., 20 hours, read-out: minimum inhibitory concentration
Description: as §1, §2, §3

[18] = test system: Staphylococcus aureus Russell; settings: agar dilution, 35° C., 20 hours, read-out: minimum inhibitory concentration
Description: as §1, §2, §3

[19] = test system: Pseudomonas aeruginosa IFO3445; settings: IFO3445, agar dilution, 35° C., 20 hours, read-out: minimum inhibitory concentration
Description: as §1, §2, §3

[20] = test system: Proteus rettgeri P7; settings: Providencia rettgeri, P7; agar dilution, 35° C., 20 hours; read-out: minimum inhibitory concentration
Description: as §1, §2, §3

[21] = test system: Pseudomonas aeruginosa NCTC10490; settings: NCTC10490, agar dilution, 35° C., 20 hours, read-out: minimum inhibitory concentration
Description: as §1, §2, §3

[22] = test system: Escherichia coli K-12; settings: K12, agar dilution, 35° C., 20 hours, read-out: minimum inhibitory concentration
Description: as §1, §2, §3

[23] = test system: Serratia marcescens S18; settings: S18, agar dilution, 35° C., 20 hours, read-out: minimum inhibitory concentration
Description: as §1, §2, §3

[24] = test system: Citrobacter freundii GN 346; settings: GN346, agar dilution, 35° C., 20 hours, read-out: minimum inhibitory concentration
Description: as §1, §2, §3

| Structure (SMILES) | MIC [1] | MIC [2] | MIC [3] | MIC [4] | MIC [5] | MIC [6] | MIC [7] | MIC [8] | MIC [9] | MIC [10] | MIC [12] | MIC [13] | MIC [15] | MIC [16] | MIC [17] | MIC [18] | MIC [19] | MIC [20] | MIC [21] | MIC [22] | further results |
| --- | --- | --- | --- | --- | --- | --- | --- | --- | --- | --- | --- | --- | --- | --- | --- | --- | --- | --- | --- | --- | --- |
| CC(C)C1C(=O)N2C(C(=O)O)=C(Sc3ccccc3)CC12 (centres unmarked) | > 100 µg/mL | > 100 µg/mL | 6.25 µg/mL (≈ 20.6 µM) | 0.025 µg/mL (≈ 0.0824 µM) | 25 µg/mL (≈ 82.4 µM) | 0.013 µg/mL (≈ 0.0429 µM) | > 100 µg/mL | 100 µg/mL (≈ 330 µM) | > 100 µg/mL | 0.2 µg/mL (≈ 0.659 µM) | 50 µg/mL (≈ 165 µM) | > 100 µg/mL | 0.1 µg/mL (≈ 0.33 µM) | 0.013 µg/mL (≈ 0.0429 µM) | > 100 µg/mL | 0.025 µg/mL (≈ 0.0824 µM) | 25 µg/mL (≈ 82.4 µM) | 100 µg/mL (≈ 330 µM) | 6.25 µg/mL (≈ 20.6 µM) | 50 µg/mL (≈ 165 µM) | MIC [11]: 0.007 µg/mL (≈ 0.0231 µM); MIC [14]: > 100 µg/mL; MIC [23]: > 100 µg/mL; MIC [24]: > 100 µg/mL |
| CCC1C(=O)N2C(C(=O)O)=C(Sc3ccccn3)CC12 (centres unmarked) [Example 65, 3-(2-Pyridylthio)-6-ethyl-7-oxo-1-azabicyclo-[3.2.0]hept-2-ene-2-carboxylicacid] |  |  |  |  | 1.56 µg/mL (≈ 5.37 µM) |  |  | 6.25 µg/mL (≈ 21.5 µM) | 12.5 µg/mL (≈ 43.1 µM) |  |  |  |  |  | 25 µg/mL (≈ 86.1 µM) |  | 12.5 µg/mL (≈ 43.1 µM) | 6.25 µg/mL (≈ 21.5 µM) | 25 µg/mL (≈ 86.1 µM) |  | MIC [23]: 12.5 µg/mL (≈ 43.1 µM) |

Further compounds by falling MIC [5], results first:

| MIC [1] | MIC [2] | MIC [3] | MIC [4] | MIC [5] | MIC [6] | MIC [7] | MIC [8] | MIC [9] | MIC [10] | MIC [12] | MIC [13] | MIC [15] | MIC [16] | MIC [17] | MIC [18] | MIC [19] | MIC [20] | MIC [21] | MIC [22] | Structure (SMILES) | further results |
| --- | --- | --- | --- | --- | --- | --- | --- | --- | --- | --- | --- | --- | --- | --- | --- | --- | --- | --- | --- | --- | --- |
| 12.5 µg/mL (≈ 46.1 µM) | 12.5 µg/mL (≈ 46.1 µM) | 1.56 µg/mL (≈ 5.75 µM) | 0.39 µg/mL (≈ 1.44 µM) | 6.25 µg/mL (≈ 23 µM) | 0.2 µg/mL (≈ 0.737 µM) | 25 µg/mL (≈ 92.1 µM) | 50 µg/mL (≈ 184 µM) | 25 µg/mL (≈ 92.1 µM) | 0.39 µg/mL (≈ 1.44 µM) | 12.5 µg/mL (≈ 46.1 µM) | 25 µg/mL (≈ 92.1 µM) | 0.39 µg/mL (≈ 1.44 µM) | 0.39 µg/mL (≈ 1.44 µM) | 50 µg/mL (≈ 184 µM) | 0.39 µg/mL (≈ 1.44 µM) | 12.5 µg/mL (≈ 46.1 µM) | 12.5 µg/mL (≈ 46.1 µM) | 25 µg/mL (≈ 92.1 µM) | 12.5 µg/mL (≈ 46.1 µM) | CC(C)C1C(=O)N2C(C(=O)O)=C(SCCO)CC12 (centres unmarked) [R1 --CH3, R21 --CH2 CH2 OH] | MIC [11]: 0.05 µg/mL (≈ 0.184 µM); MIC [14]: 12.5 µg/mL (≈ 46.1 µM); MIC [23]: 12.5 µg/mL (≈ 46.1 µM); MIC [24]: 12.5 µg/mL (≈ 46.1 µM) |
| 12.5 µg/mL (≈ 40.9 µM) | 3.13 µg/mL (≈ 10.3 µM) | 1.56 µg/mL (≈ 5.11 µM) | 0.013 µg/mL (≈ 0.0426 µM) | 3.13 µg/mL (≈ 10.3 µM) | < 0.007 µg/mL | 12.5 µg/mL (≈ 40.9 µM) | > 100 µg/mL | > 100 µg/mL | 0.1 µg/mL (≈ 0.327 µM) | 25 µg/mL (≈ 81.9 µM) | 12.5 µg/mL (≈ 40.9 µM) | 0.013 µg/mL (≈ 0.0426 µM) | < 0.007 µg/mL | 100 µg/mL (≈ 327 µM) | 0.013 µg/mL (≈ 0.0426 µM) | 50 µg/mL (≈ 164 µM) | 100 µg/mL (≈ 327 µM) | 50 µg/mL (≈ 164 µM) | 3.13 µg/mL (≈ 10.3 µM) | CC(O)C1C(=O)N2C(C(=O)O)=C(Sc3ccccc3)CC12 (centres unmarked) | MIC [11]: < 0.007 µg/mL; MIC [14]: > 100 µg/mL; MIC [23]: 100 µg/mL (≈ 327 µM); MIC [24]: 100 µg/mL (≈ 327 µM) |
| 50 µg/mL (≈ 163 µM) | 0.78 µg/mL (≈ 2.55 µM) | 0.025 µg/mL (≈ 0.0816 µM) | 0.2 µg/mL (≈ 0.653 µM) | 1.56 µg/mL (≈ 5.09 µM) | 0.1 µg/mL (≈ 0.326 µM) | 50 µg/mL (≈ 163 µM) |  |  | 0.2 µg/mL (≈ 0.653 µM) | 25 µg/mL (≈ 81.6 µM) | 6.25 µg/mL (≈ 20.4 µM) | 0.2 µg/mL (≈ 0.653 µM) | 0.1 µg/mL (≈ 0.326 µM) | 100 µg/mL (≈ 326 µM) | 0.2 µg/mL (≈ 0.653 µM) |  | 6.25 µg/mL (≈ 20.4 µM) | 1.56 µg/mL (≈ 5.09 µM) | 1.56 µg/mL (≈ 5.09 µM) | CC(O)[C@H]1C(=O)N2C(C(=O)O)=C(Sc3ccncc3)C[C@H]12 (stereo partly drawn) [Example 59, 5,6-trans-3-(4-Pyridylthio)-6-(1-hydroxyethyl)-7-oxo-1-azabicyclo[3.2.0]hept-2-ene-2-carboxylic acid] | MIC [24]: 100 µg/mL (≈ 326 µM) |
